pKi: −log10 of the molar value. Counter-ions that a name gives are not always drawn.
Target: human α-thrombin (Homo sapiens, UniProt P00734)
Assay: In vitro assay for determining proteinase inhibition: human α-thrombin
Type: biochemical
Settings: 25° C., 0.05 M TRIS buffer pH 7.4, 0.15 M NaCl, 0.1% PEG, class symbols, read-out: Inhibitory activity (Ki)
Procedure: In Vitro Assay For Determining Proteinase Inhibition
The assays were carried out at 25° C. in 0.05 M TRIS buffer pH 7.4, 0.15 M NaCl, 0.1% PEG. Trypsin assays also contained 1 mM CaCl2.
Concentrations of stock solutions of Z-GPR-afc were determined from measurements of absorbance at 380 nm of the 7-amino-4-trifluoromethyl coumarin produced upon complete hydrolysis of an aliquot of the stock solution by thrombin.
Times required to achieve equilibration between enzyme and inhibitor were determined in control experiments. Initial velocities of product formation in the absence (Vo) or presence of inhibitor (Vi) were measured. Assuming competitive inhibition, and that unity is negligible compared Km /[S], […] (where [S], [I], and e respectively represent the total concentrations, of substrate, inhibitor and enzyme), the equilibrium constant (Ki) for dissociation of the inhibitor from the enzyme can be obtained from the dependence of Vo /Vi on [I] shown in equation 1.

| Compound | pKi |
| --- | --- |
| Cc1cnc(NCCc2ccccc2)c(=O)n1CC(=O)NCc1ccc2nccn2c1 [Example 1, dihydrochloride] | < 7.70 |
| Cc1cc(CNC(=O)Cn2c(C)cnc(NCCc3ccccc3)c2=O)cn2ccnc12 [Example 3, dihydrochloride] | < 7.70 |
| Cc1cc2nccn2cc1CNC(=O)Cn1c(C)cnc(NCCc2ccccc2)c1=O [Example 4, dihydrochloride] | < 7.70 |
| Cc1cnc(NCCc2ccccc2)c(=O)n1CC(=O)NCc1ccn2ccnc2c1 [Example 5, 3-(2-Phenethyleneamino)-6-methyl-1-(6-methylenecarboxamidomethylene-imidazo[1,2-a]pyridinyl)-pyrazinone] | < 7.70 |
| Cc1cc(S(=O)(=O)CC2CCC2)c(N)c(=O)n1CC(=O)NCc1ccc2nccn2c1C [Example 6, 3-Amino-4-cyclobutylmethylenesulfonyl-6-methyl-1-(4-methyl-5-methylenecarboxamidomethyleneimidazo[1,2-a]pyridinyl)-pyridinone hydrochloride] | > 7.70 |
| Cc1cnc(NCCc2ccccn2)c(=O)n1CC(=O)NCc1ccc2nccn2c1C [Example 7, 3-[2-(2-Pyridyl)ethyleneamino]-6-methyl-1-(4-methyl-5-methylenecarboxamidomethyleneimidazo[1,2-a]pyridinyl)-pyrazinone] | > 7.70 |
| Cc1ccc(NS(=O)(=O)Cc2ccccc2)c(=O)n1CC(=O)NCc1ccc2nccn2c1C [Example 8, hydrochloride] | > 7.70 |
| Cc1cc2c(c(=O)n1CC(=O)NCc1ccc3nccn3c1C)NC(=O)[C@H](Cc1ccccc1)C2 [Example 9, [R]-7-(4-methyl-5-methylenecarboxamidomethyleneimidazo[1,2-a]pyridinyl)-3-benzyl-6-methyl-2-oxo-1,2,3,4-tetrahydro-1,7-naphthiridin-[7H]-8-one] | > 7.70 |
| CC[C@H](C)CC1Cc2cc(C)n(CC(=O)NCc3ccc4nccn4c3C)c(=O)c2NC1=O (stereo partly drawn) [Example 10, 7-(4-methyl-5-methylenecarboxamidomethyleneimidazo[1,2-a]pyridinyl)-3-[RS]-(2-[S]-methylbutyl)-6-methyl-2-oxo-1,2,3,4-tetrahydro-1,7-naphthiridin-[7H]-8-one] | > 7.70 |
